# Results taken from patent US6586173B2, “Methods for the detection of amino acid decarboxylases” (priority 1999, dated 2003).
# Values joined by “and” are separate entries in the source; they are usually repeats but may differ in a detail not shown here. Equal values may be shown once. Read-outs that look alike come from different tables or passages of the source. No end group written: not given here. *: point of attachment. AMC = Cc1cc(=O)oc2cc(N*)ccc12
# What was measured:
# Di-ADC [1] = experiment: Effect of inhibitors on cleavage of H-Phe-AMC by Di-ADC (D. immitis L3/L4 ES); type: biochemical, Dirofilaria immitis
# D. immitis L3 larvae = experiment: Larval culture assay, molting of L3 larvae counted by shed cuticles; type: cell-based, Dirofilaria immitis
# Phe-DC [2] = experiment: Inhibitor assay with commercially prepared Phe-DC as enzyme source; type: biochemical
# Tyr-DC = molecular target: T1, Tyr-DC (Enterococcus faecalis, UniProt P0DTQ4); experiment: Inhibitor assay with commercially prepared Tyr-DC as enzyme source; type: biochemical
# T1 sequence (P0DTQ4 1-620): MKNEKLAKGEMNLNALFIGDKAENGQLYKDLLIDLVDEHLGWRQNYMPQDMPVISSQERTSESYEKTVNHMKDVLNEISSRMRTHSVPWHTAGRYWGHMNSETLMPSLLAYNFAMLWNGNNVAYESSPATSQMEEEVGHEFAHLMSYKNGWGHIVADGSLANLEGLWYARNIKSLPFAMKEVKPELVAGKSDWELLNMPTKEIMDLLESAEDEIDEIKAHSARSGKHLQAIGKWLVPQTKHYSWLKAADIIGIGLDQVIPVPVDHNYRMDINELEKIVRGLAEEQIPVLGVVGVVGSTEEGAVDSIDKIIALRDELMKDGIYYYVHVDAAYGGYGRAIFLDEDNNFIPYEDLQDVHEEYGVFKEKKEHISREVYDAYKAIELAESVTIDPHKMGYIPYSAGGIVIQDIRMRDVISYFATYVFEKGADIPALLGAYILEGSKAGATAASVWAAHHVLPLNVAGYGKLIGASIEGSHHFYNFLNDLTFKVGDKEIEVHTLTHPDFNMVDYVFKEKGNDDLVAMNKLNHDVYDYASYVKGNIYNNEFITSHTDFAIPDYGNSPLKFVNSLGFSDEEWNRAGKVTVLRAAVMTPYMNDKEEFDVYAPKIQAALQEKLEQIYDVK
# D. immitis L3/L4 ES = type: biochemical, Dirofilaria immitis; conditions: pH 7.5
# [3] = tested on: phenylalanine decarboxylase (Phe-DC); experiment: Substrate specificity assay on commercially prepared Phe-DC; type: biochemical; conditions: as Example 1
# [4] = molecular target: T2, tyrosine decarboxylase (Tyr-DC) (Enterococcus faecalis, UniProt P0DTQ4); experiment: Substrate specificity assay on commercially prepared Tyr-DC; type: biochemical; conditions: as Example 1
# T2 sequence (P0DTQ4 1-620): T1 sequence (P0DTQ4 1-620)
# Di-ADC [5] = experiment: Enzyme kinetics of Di-ADC with AMC substrates (fluorimetric assay); type: biochemical, Dirofilaria immitis; conditions: substrate 0.0016 to 0.2 mM, double-reciprocal plot
# Phe-DC [6] = experiment: Enzyme kinetics of Phe-DC with AMC substrates (fluorimetric assay); type: biochemical; conditions: substrate 0.0016 to 0.2 mM, double-reciprocal plot
# Protocol: E. Enzyme kinetics, as measured by Michaelis constant (Km) and maximal velocity (Vmax), can be used to characterize the activity of an enzyme towards a given substrate under defined conditions. Enzymatic reactions were performed under the fluorimetric assay conditions described in Example 1 using Di-ADC and commercially prepared Phe-DC as the enzymes and H-Phe-AMC, H-Tyr-AMC and H-Trp-AMC as the substrates. One μL of purified adult Di-ADC, prepared as described in Example 2 through the gel filtration chromatography step, or 80 micro units (μU) (11.4 μg) of Phe-DC were incubated with each substrate at substrate concentrations ranging from 0.0016 to 0.2 mM. Each reaction was carried out in duplicate in PBS reaction buffer and monitored using the fluorimetric method described in Example 1. The values of apparent Km and Vm, of Di-ADC and Phe-DC for the substrates H-Phe-AMC, H-Tyr-AMC and H-Trp-AMC were calculated from a double-reciprocal plot of 1/v against 1/[substrate].
# Di-ADC [7] = experiment: Carbon dioxide release on decarboxylation of L-phenylalanine by Di-ADC (INFINITY CO2 kit); type: biochemical, Dirofilaria immitis; conditions: 5 mM L-phenylalanine, 37° C., 45 minutes
# Phe-DC [8] = experiment: Carbon dioxide release on decarboxylation of L-phenylalanine by Phe-DC (control reaction); type: biochemical; conditions: 375 U Phe-DC
# Di-ADC [9] = experiment: Formation of dopamine from dopa by Di-ADC; type: biochemical, Dirofilaria immitis; conditions: 10 μl Di-ADC, 0.5 mM L-dopa, 37° C., 30 minutes
# Phe-DC [10] = experiment: Formation of dopamine from dopa by Phe-DC; type: biochemical; conditions: 172 μU Phe-DC, 0.5 mM L-dopa, 37° C., 30 minutes
# [11] = compared with inhibition of Di-ADC
compound,measurement,setting,value
"O=c1oc(Cl)c(Cl)c2ccccc12 [3,4-DCI, 3,4-Dichioroisocoumarin]",inhibition of Di-ADC activity relative to Phe-DC or Tyr-DC activity,Di-ADC [1]; comparison between enzymes,more strongly
same,sensitivity of the enzyme activity (H-Phe-AMC cleavage) to inhibitor,"Di-ADC [1]; inhibitor concentrations of Table II, pre-incubated 30 minutes at 37° C.",sensitive
same,% Inhibition of molting of L3 larvae,"D. immitis L3 larvae; 0.001 mM, 3 days culture",28.6%
same,% Inhibition of molting of L3 larvae,"D. immitis L3 larvae; 0.01 mM, 3 days culture",40.9%
same,% Inhibition of molting of L3 larvae,"D. immitis L3 larvae; 0.1 mM, 3 days culture",100%
same,inhibition of the molting process (in words),D. immitis L3 larvae; final concentration of 0.1 mM,completely inhibited the molting process
"NCCc1c[nH]c2ccc(O)cc12 [5-HT, 5-hydroxytryptamine]",inhibition of Phe-DC activity,Phe-DC [2]; [11],at levels similar to the level that each inhibited Di-ADC
same,inhibition of Tyr-DC activity,Tyr-DC; [11],at levels similar to the level that each inhibited Di-ADC
N=C(N)c1ccc(CS(=O)(=O)F)cc1 [APMSF],% Inhibition of molting of L3 larvae,D. immitis L3 larvae,19.7% and 24.2% and 14.1%
same,inhibition of the molting of L3 to L4 (in words),D. immitis L3 larvae,unable to completely inhibit the molting
"O=C(O)c1cc[c]([Hg][Cl])cc1 [CMBA, p-chloromercuribenzoic acid]",inhibition of Phe-DC activity,Phe-DC [2],at levels similar to the level that each inhibited Di-ADC
same,inhibition of Tyr-DC activity,Tyr-DC,at levels similar to the level that each inhibited Di-ADC
Cc1cc(=O)oc2cc(NC(=O)[C@H](Cc3ccccc3)NC(=O)CCCC(=O)O)ccc12 [Glutaryl—Phe—AMC],D. immitis L3/L4 ES Activity (cleavage of substrate),D. immitis L3/L4 ES,No
Cc1cc(=O)oc2cc(NC(=O)[C@H](C)N)ccc12 [H—Ala—AMC],D. immitis L3/L4 ES Activity (cleavage of substrate),D. immitis L3/L4 ES,No
Cc1cc(=O)oc2cc(NC(=O)[C@@H](N)CCCN=C(N)N)ccc12 [H—Arg—AMC],D. immitis L3/L4 ES Activity (cleavage of substrate),D. immitis L3/L4 ES,No
Cc1cc(=O)oc2cc(NC(=O)[C@@H](N)CCC(=O)O)ccc12 [H—Glu—AMC],D. immitis L3/L4 ES Activity (cleavage of substrate),D. immitis L3/L4 ES,No
Cc1cc(=O)oc2cc(NC(=O)CN)ccc12 [H—Gly—AMC],D. immitis L3/L4 ES Activity (cleavage of substrate),D. immitis L3/L4 ES,No
Cc1cc(=O)oc2cc(NC(=O)[C@@H](N)Cc3cnc[nH]3)ccc12 [H—His—AMC],D. immitis L3/L4 ES Activity (cleavage of substrate),D. immitis L3/L4 ES,No
Cc1cc(=O)oc2cc(NC(=O)[C@@H](N)CC(C)C)ccc12 [H—Leu—AMC],D. immitis L3/L4 ES Activity (cleavage of substrate),D. immitis L3/L4 ES,No
Cc1cc(=O)oc2cc(NC(=O)[C@@H](N)CCCCN)ccc12 [H—Lys—AMC],D. immitis L3/L4 ES Activity (cleavage of substrate),D. immitis L3/L4 ES,No
CSCC[C@H](N)C(=O)Nc1ccc2ccccc2c1 [H—Met—NHNap],D. immitis L3/L4 ES Activity (cleavage of substrate),D. immitis L3/L4 ES,No
Cc1cc(=O)oc2cc(NC(=O)[C@@H](N)Cc3ccccc3)ccc12 [H—Phe—AMC],D. immitis L3/L4 ES Activity (cleavage of substrate),D. immitis L3/L4 ES,Yes
same,cleavage of substrate by Phe-DC,[3],cleave
same,cleavage of substrate by Tyr-DC,[4],cleave
same,Km,Di-ADC [5],32.1 µM
same,Vmax,Di-ADC [5],0.234 pmol/mg/min
same,Km,Phe-DC [6],23.1 µM
same,Vmax,Phe-DC [6],0.619 pmol/mg/min
Cc1cc(=O)oc2cc(NC(=O)[C@@H]3CCCN3)ccc12 [H—Pro—AMC],D. immitis L3/L4 ES Activity (cleavage of substrate),D. immitis L3/L4 ES,No
Cc1cc(=O)oc2cc(NC(=O)C(N)CO)ccc12 (stereo not shown) [H—Ser—AMC],D. immitis L3/L4 ES Activity (cleavage of substrate),D. immitis L3/L4 ES,No
Cc1cc(=O)oc2cc(NC(=O)[C@@H](N)Cc3c[nH]c4ccccc34)ccc12 [H—Trp—AMC],D. immitis L3/L4 ES Activity (cleavage of substrate),D. immitis L3/L4 ES,Yes
same,cleavage of substrate by Phe-DC,[3],cleave
same,cleavage of substrate by Tyr-DC,[4],cleave
same,Km,Di-ADC [5],29.1 µM
same,Vmax,Di-ADC [5],0.140 pmol/mg/min
same,Km,Phe-DC [6],22.9 µM
same,Vmax,Phe-DC [6],0.703 pmol/mg/min
Cc1cc(=O)oc2cc(NC(=O)[C@@H](N)Cc3ccc(O)cc3)ccc12 [H—Tyr—AMC],D. immitis L3/L4 ES Activity (cleavage of substrate),D. immitis L3/L4 ES,Yes
same,cleavage of substrate by Phe-DC,[3],cleave
same,cleavage of substrate by Tyr-DC,[4],cleave
same,Km,Di-ADC [5],35.1 µM
same,Vmax,Di-ADC [5],0.152 pmol/mg/min
same,Km,Phe-DC [6],72.3 µM
same,Vmax,Phe-DC [6],0.339 pmol/mg/min
N[C@@H](Cc1ccccc1)C(=O)O [L-phenylalanine],formation of CO2,Di-ADC [7]; 5 μL Di-ADC,0.7 mM
same,formation of CO2,Di-ADC [7]; 10 μL Di-ADC,0.38 mM
same,formation of CO2,Di-ADC [7]; 20 μl Di-ADC,0.4 mM
same,formation of CO2,Phe-DC [8],0.27 mM
"O=S(=O)(F)Cc1ccccc1 [PMSF, Phenylmethane-7-sulfonyl fluoride]",inhibition of Di-ADC activity relative to Phe-DC or Tyr-DC activity,Di-ADC [1],more strongly
same,sensitivity of the enzyme activity (H-Phe-AMC cleavage) to inhibitor,Di-ADC [1],sensitive
same,% Inhibition of molting of L3 larvae,D. immitis L3 larvae,32.3% and 47.3% and 29.8%
same,inhibition of the molting of L3 to L4 (in words),D. immitis L3 larvae,unable to completely inhibit the molting
Cl.NCCc1ccc(S(=O)(=O)F)cc1 [Pefabloc],sensitivity of the enzyme activity (H-Phe-AMC cleavage) to inhibitor,Di-ADC [1],sensitive
same,inhibition of Phe-DC activity,Phe-DC [2],at levels similar to the level that each inhibited Di-ADC
same,inhibition of Tyr-DC activity,Tyr-DC,at levels similar to the level that each inhibited Di-ADC
same,effect on molting (in words),D. immitis L3 larvae,no apparent effect on molting
same,effect on the molt (in words),D. immitis L3 larvae,inhibited the molt completely
same,inhibition of the molting process (in words),D. immitis L3 larvae,completely inhibited the molting process
"N[C@@H](Cc1ccc(O)c(O)c1)C(=O)O [dopa, L-dopa]",dopamine formed,Di-ADC [9],2.74 nmol
same,dopamine formed,Phe-DC [10],9.4 nmol
Ala-Ala-Phe-{AMC},D. immitis L3/L4 ES Activity (cleavage of substrate),D. immitis L3/L4 ES,No
